From the NIST ThermoML archive (doi:10.1021/je700499d)

Tests used:
[1] = xn = mol fraction of the nth substance listed; conditions: 101 kPa, Liquid
[2] = 101 kPa, Liquid

OCCCCO [1,4-butanediol] + OCCO
mass density [kg/m3], [1]
Conditions	x1 = 0.0711	x1 = 0.1469	x1 = 0.2279	x1 = 0.3147	x1 = 0.4078	x1 = 0.5081	x1 = 0.6164	x1 = 0.7337	x1 = 0.8611	x1 = 1
293.15 K	1102.71	1092.13	1081.71	1071.48	1061.52	1051.91	1042.67	1033.74	1024.96	1016.37
298.15 K	1099.09	1088.58	1078.21	1068.02	1058.12	1048.56	1039.34	1030.4	1021.64	1013.04
303.15 K	1096.06	1085.57	1075.22	1065.04	1055.16	1045.58	1036.35	1027.39	1018.61	1009.96
308.15 K	1092.51	1082.1	1071.84	1061.7	1051.85	1042.33	1033.12	1024.17	1015.41	1006.75
313.15 K	1089.15	1078.8	1068.56	1058.5	1048.65	1039.15	1029.95	1020.99	1012.22	1003.55
318.15 K	1085.69	1075.44	1065.32	1055.33	1045.62	1036.15	1027.01	1018.1	1009.36	1000.72
323.15 K	1082.18	1072.03	1061.97	1052.09	1042.43	1033.05	1023.96	1015.11	1006.4	997.8
328.15 K	1078.33	1068.25	1058.28	1048.46	1038.86	1029.53	1020.51	1011.66	1002.99	994.41

OCCCO [propan-1,3-diol]
[2]
Conditions	mass density [kg/m3]
293.15 K	1053.66
298.15 K	1050.29
303.15 K	1047.09
308.15 K	1043.92
313.15 K	1040.61
318.15 K	1037.6
323.15 K	1034.51
328.15 K	1031

OCCCO [propan-1,3-diol] + OCCCCO
mass density [kg/m3], [1]
Conditions	293.15 K	298.15 K	303.15 K	308.15 K	313.15 K	318.15 K	323.15 K	328.15 K
x2 = 0	1053.66	1050.29	1047.09	1043.92	1040.61	1037.6	1034.51	1031
x2 = 0.0858	1049.89	1046.56	1043.39	1040.26	1036.99	1034.04	1030.99	1027.53
x2 = 0.1743	1046.21	1042.87	1039.74	1036.61	1033.39	1030.48	1027.5	1024.08
x2 = 0.2657	1042.49	1039.2	1036.07	1032.95	1029.75	1026.88	1023.9	1020.5
x2 = 0.3602	1038.78	1035.48	1032.39	1029.26	1026.07	1023.21	1020.26	1016.86
x2 = 0.4578	1035.05	1031.77	1028.69	1025.57	1022.39	1019.53	1016.6	1013.22
x2 = 0.5523	–	–	1024.89	–	–	–	–	–
x2 = 0.5588	1031.27	1027.98	–	1021.77	1018.61	1015.78	1012.86	1009.51
x2 = 0.6574	–	–	1021.16	–	–	–	–	–
x2 = 0.6633	1027.52	1024.23	–	1018.03	1014.87	1012.06	1009.17	1005.8
x2 = 0.7669	–	–	1017.41	–	–	–	–	–
x2 = 0.7716	1023.77	1020.48	–	1014.27	1011.08	1008.27	1005.36	1001.99
x2 = 0.881	–	–	1013.68	–	–	–	–	–
x2 = 0.8837	1020.05	1016.74	–	1010.51	1007.33	1004.52	1001.61	998.24
